Patent US9993494B2, “Compositions and methods for treating fibrotic disease” (eFFECTOR Therapeutics, Inc., priority 2014, dated 2018)

Test system: normal human lung fibroblasts
Experiment: Ribosomal profiling: translational efficiency in TGFβ-treated fibroblasts
Type: cell-based
Conditions: TGFβ-treated fibroblasts
Method: Ribosomal profiling allows for measurement of changes in transcription and translation on a genome-wide basis accompanying TGFβ-dependent transformation of fibroblasts to myofibroblasts. Ribosomal profiles of the TGFβ-treated fibroblasts from Example 1 (about 6×10^6 cells/10 cm plate) were prepared and analyzed for changes in translational efficiencies with respect to potential disease-associated cellular changes accompanying this TGFβ-induced transformation.
Briefly, cells were washed with cold PBS supplemented with cycloheximide and lysed with 1× mammalian cell lysis buffer for 10 minutes on ice. Lysates were clarified by centrifugation for 10 minutes at 14,000 rpm and supernatants were collected. Cell lysates were processed to generate ribosomal protected fragments and total mRNA according to the instructions included with the ARTseq Ribosome Profiling Kit (Illumina, San Diego, Calif.). Sequencing of total RNA (RNA) and of ribosome-protected fragments of RNA (RPF) was carried out using RNA-Seq methodology according to the manufacturer's instructions (Illumina). To analyze the ribosomal profiles, RNA-Seq reads were processed with tools from the FASTX-Toolkit (fastq_quality_trimmer, fastx_clipper and fastx_trimmer). Unprocessed and processed reads were evaluated for a variety of quality measures using FastQC, and processed reads were mapped to the human genome using TopHat (see, e.g., Trapnell et al., Bioinformatics 25:1105, 2009). Gene-by-gene assessment of the number of fragments strictly and uniquely mapping to the coding region of each gene was conducted using HTSeq-count, a component of the HTSeq package. […] Genes with low counts in either RPF or RNA were excluded from differential analyses. Pathway and network analyses of differential data were conducted using Ingenuity Pathway Analysis (IPA).

Cc1ccc(=O)n(-c2ccccc2)c1 [pirfenidone, 5-methyl-1-phenylpyridin-2-one]
− (− = <0.9): renormalizing the translational profile of DNASE1L1 (ENSG00000013563) | renormalizing the translational profile of KITLG (ENSG00000049130) | renormalizing the translational profile of ADAMTS6 (ENSG00000049192) | renormalizing the translational profile of LETMD1 (ENSG00000050426) | renormalizing the translational profile of PLEKHA5 (ENSG00000052126) | renormalizing the translational profile of HIPK2 (ENSG00000064393) | renormalizing the translational profile of RASSF1 (ENSG00000068028) | renormalizing the translational profile of PABPC1 (ENSG00000070756) | renormalizing the translational profile of PLD1 (ENSG00000075651) | renormalizing the translational profile of EDN1 (ENSG00000078401) | renormalizing the translational profile of AURKA (ENSG00000087586) | renormalizing the translational profile of EPB41L1 (ENSG00000088367) | renormalizing the translational profile of RPL6 (ENSG00000089009) | renormalizing the translational profile of KDM2B (ENSG00000089094) | renormalizing the translational profile of RPLP0 (ENSG00000089157) | renormalizing the translational profile of IGBP1 (ENSG00000089289) | renormalizing the translational profile of IRAK3 (ENSG00000090376) | renormalizing the translational profile of PABPC4 (ENSG00000090621) | renormalizing the translational profile of ACOT7 (ENSG00000097021) | renormalizing the translational profile of ATP5D (ENSG00000099624) | renormalizing the translational profile of EIF3L (ENSG00000100129) | renormalizing the translational profile of CEP192 (ENSG00000101639) | renormalizing the translational profile of AMMECR1 (ENSG00000101935) | renormalizing the translational profile of PLP2 (ENSG00000102007) | renormalizing the translational profile of EIF3E (ENSG00000104408) | renormalizing the translational profile of EEF1D (ENSG00000104529) | renormalizing the translational profile of C19orf53 (ENSG00000104979) | renormalizing the translational profile of COMP (ENSG00000105664) | renormalizing the translational profile of CORO2A (ENSG00000106789) | renormalizing the translational profile of GDF10 (ENSG00000107623) | renormalizing the translational profile of RPL19 (ENSG00000108298) | renormalizing the translational profile of RASD1 (ENSG00000108551) | renormalizing the translational profile of NAT9 (ENSG00000109065) | renormalizing the translational profile of CRYAB (ENSG00000109846) | renormalizing the translational profile of GAPDH (ENSG00000111640) | renormalizing the translational profile of C12orf57 (ENSG00000111678) | renormalizing the translational profile of MDFI (ENSG00000112559) | renormalizing the translational profile of HBEGF (ENSG00000113070) | renormalizing the translational profile of RPL24 (ENSG00000114391) | renormalizing the translational profile of EEF1B2 (ENSG00000114942) | renormalizing the translational profile of DPH5 (ENSG00000117543) | renormalizing the translational profile of PPL (ENSG00000118898) | renormalizing the translational profile of PLEKHG1 (ENSG00000120278) | renormalizing the translational profile of LIAS (ENSG00000121897) | renormalizing the translational profile of GPSM2 (ENSG00000121957) | renormalizing the translational profile of INHBA (ENSG00000122641) | renormalizing the translational profile of LAMP5 (ENSG00000125869) | renormalizing the translational profile of NECAB3 (ENSG00000125967) | renormalizing the translational profile of COX7C (ENSG00000127184) | renormalizing the translational profile of LIF (ENSG00000128342) | renormalizing the translational profile of ARHGEF6 (ENSG00000129675) | renormalizing the translational profile of GDF15 (ENSG00000130513) | renormalizing the translational profile of ASS1 (ENSG00000130707) | renormalizing the translational profile of EIF2S3 (ENSG00000130741) | renormalizing the translational profile of RPL27 (ENSG00000131469) | renormalizing the translational profile of MATN3 (ENSG00000132031) | renormalizing the translational profile of KDM6B (ENSG00000132510) | renormalizing the translational profile of RARRES3 (ENSG00000133321) | renormalizing the translational profile of BIVM (ENSG00000134897) | renormalizing the translational profile of HNRNPA1 (ENSG00000135486) | renormalizing the translational profile of IL6 (ENSG00000136244) | renormalizing the translational profile of RPL35 (ENSG00000136942) | renormalizing the translational profile of NOV (ENSG00000136999) | renormalizing the translational profile of IER3 (ENSG00000137331) | renormalizing the translational profile of DDX60 (ENSG00000137628) | renormalizing the translational profile of PAQR5 (ENSG00000137819) | renormalizing the translational profile of AOX1 (ENSG00000138356) | renormalizing the translational profile of PDE5A (ENSG00000138735) | renormalizing the translational profile of GAS2L3 (ENSG00000139354) | renormalizing the translational profile of MYO19 (ENSG00000141140) | renormalizing the translational profile of RPL11 (ENSG00000142676) | renormalizing the translational profile of PLEKHA6 (ENSG00000143850) | renormalizing the translational profile of RPL32 (ENSG00000144713) | renormalizing the translational profile of BTF3 (ENSG00000145741) | renormalizing the translational profile of DENND2A (ENSG00000146966) | renormalizing the translational profile of EIF3H (ENSG00000147677) | renormalizing the translational profile of EIF3M (ENSG00000149100) | renormalizing the translational profile of FAU (ENSG00000149806) | renormalizing the translational profile of FRMD4A (ENSG00000151474) | renormalizing the translational profile of HOMER1 (ENSG00000152413) | renormalizing the translational profile of PLEKHH2 (ENSG00000152527) | renormalizing the translational profile of ANKH (ENSG00000154122) | renormalizing the translational profile of ABCA6 (ENSG00000154262) | renormalizing the translational profile of OBSCN (ENSG00000154358) | renormalizing the translational profile of ADAMTS5 (ENSG00000154736) | renormalizing the translational profile of OXA1L (ENSG00000155463) | renormalizing the translational profile of C9orf85 (ENSG00000155621) | renormalizing the translational profile of NRG1 (ENSG00000157168) | renormalizing the translational profile of ADAMTS4 (ENSG00000158859) | renormalizing the translational profile of RPL8 (ENSG00000161016) | renormalizing the translational profile of RPL29 (ENSG00000162244) | renormalizing the translational profile of CAMK2N1 (ENSG00000162545) | renormalizing the translational profile of IGFBP7 (ENSG00000163453)
+ (+ = 0.9 to 1.5): renormalizing the translational profile of EIF4B (ENSG00000063046) | renormalizing the translational profile of RPL18 (ENSG00000063177) | renormalizing the translational profile of ASPM (ENSG00000066279) | renormalizing the translational profile of RPL31 (ENSG00000071082) | renormalizing the translational profile of LGALS1 (ENSG00000100097) | renormalizing the translational profile of RPL3 (ENSG00000100316) | renormalizing the translational profile of GLTSCR2 (ENSG00000105373) | renormalizing the translational profile of RAB3D (ENSG00000105514) | renormalizing the translational profile of RPL18A (ENSG00000105640) | renormalizing the translational profile of GLCCI1 (ENSG00000106415) | renormalizing the translational profile of RPL28 (ENSG00000108107) | renormalizing the translational profile of RPL34 (ENSG00000109475) | renormalizing the translational profile of IFIH1 (ENSG00000115267) | renormalizing the translational profile of RPL21 (ENSG00000122026) | renormalizing the translational profile of RPL5 (ENSG00000122406) | renormalizing the translational profile of CIT (ENSG00000122966) | renormalizing the translational profile of RPL23 (ENSG00000125691) | renormalizing the translational profile of RPL36 (ENSG00000130255) | renormalizing the translational profile of ATP5G2 (ENSG00000135390) | renormalizing the translational profile of RPLP1 (ENSG00000137818) | renormalizing the translational profile of FGF5 (ENSG00000138675) | renormalizing the translational profile of RPL13A (ENSG00000142541) | renormalizing the translational profile of ACTA1 (ENSG00000143632) | renormalizing the translational profile of RPL37 (ENSG00000145592) | renormalizing the translational profile of HIGD2A (ENSG00000146066) | renormalizing the translational profile of CREB5 (ENSG00000146592) | renormalizing the translational profile of RPL10 (ENSG00000147403) | renormalizing the translational profile of RPL7A (ENSG00000148303) | renormalizing the translational profile of RPL30 (ENSG00000156482) | renormalizing the translational profile of EEF1A1 (ENSG00000156508) | renormalizing the translational profile of RPL26 (ENSG00000161970) | renormalizing the translational profile of RPL22L1 (ENSG00000163584)
+++ (+++ = >2.0): renormalizing the translational profile of FMO2 (ENSG00000094963) | renormalizing the translational profile of PPARG (ENSG00000132170)
++ (++ = 1.5 to 2.0): renormalizing the translational profile of P2RX7 (ENSG00000089041) | renormalizing the translational profile of MTUS1 (ENSG00000129422) | renormalizing the translational profile of KRT7 (ENSG00000135480) | renormalizing the translational profile of DIAPH3 (ENSG00000139734) | renormalizing the translational profile of CCDC102B (ENSG00000150636)
